This is an account of results in paper PMC4573514, “Identification and characterization of [6]-shogaol from ginger as inhibitor of vascular smooth muscle cell proliferation” (Molecular Nutrition & Food Research, 2015).

Structures are written as SMILES. Entries after “also recorded” stand apart in the source; their conditions may differ.

Series [1] deals with VSMC. Put plainly: Resazurin conversion assay, PDGF-BB-induced VSMC proliferation. Type of series: cell-based, rat. The conditions noted are these: for IC50: VSMC. Here is the method:
(§1) VSMC were seeded in 96-well plates at 5 × 10^3 cells/well. After 24 h, cells were serum-starved for 24 h to render them quiescent. Quiescent cells were pretreated for 30 min with ginger extract, compounds, or vehicle (0.1% DMSO) as indicated, and subsequently stimulated for 48 h with PDGF-BB (20 ng/mL). To measure the number of metabolically active VSMC by resazurin conversion,[19], cells were washed with PBS and incubated in serum-free medium containing 10 μg/mL resazurin for 2 h. Total metabolic activity was measured by monitoring the increase in fluorescence at a wavelength of 590 nm using an excitation wavelength of 535 nm in a 96-well plate reader (Tecan GENios Pro). HUVECtert cells,[20] were seeded in 96-well plates at 5 × 10^3 cells/well. After 24 h, HUVECtert cells were treated with compounds or vehicle (0.1% DMSO) as indicated and incubated for 48 h. Then, cells were washed with PBS and incubated in culture medium containing 10 μg/mL resazurin for 2 h. The detection step is performed as described above.

In series [2] the test system is VSMC. Put plainly: Crystal violet biomass staining, PDGF-BB-stimulated VSMC. Type of series: cell-based. To be noted: Rattus norvegicus, PDGF-BB 20 ng/mL, 48 h. Here is the method: VSMC were seeded in 96-well plates at 5 × 10^3 cells/well. Twenty-four hours later, cells were serum starved for 24 h to render them quiescent. Quiescent cells were pretreated for 30 min with ginger extract, compounds, or vehicle (0.1% DMSO) as indicated and subsequently stimulated for 48 h with PDGF-BB (20 ng/mL). To determine the total biomass by crystal violet staining, cells were then incubated in 100 μL of crystal violet staining solution (0.5% crystal violet, 20% methanol) for 15 min and then washed with ddH2O. After drying, 100 μL EtOH/Na-citrate solution were added (EtOH: 0.1M Na-citrate = 1:1) and the absorbance of the samples was measured at 595 nm in a 96-well plate reader (Tecan sunrise).

For series [3], the system named is VSMC. Nature of the series: Assessment of cytotoxicity by LDH release. The conditions noted are these: PDGF-BB 20 ng/mL, 24 h, n.s. = no significant difference, up to stated concentration. Type of series: cell-based. Here is the method: VSMC were seeded in 96-well plates at 5 × 10^3 cells/well. Twenty-four hours later, cells were serum starved for 24 h to render them quiescent. Quiescent cells were pretreated for 30 min with compounds, or vehicle (0.1% DMSO) as indicated, and subsequently stimulated for 24 h with PDGF-BB (20 ng/mL). Loss of cell membrane integrity as a sign for cell death can be quantified by the release of the soluble cytosolic protein lactate dehydrogenase (LDH),[23]. For this, the supernatant of the treated cells was assessed for LDH activity. For estimation of the total LDH, identically treated samples were incubated for 45 min in the presence of 1% Triton X-100. The released and total LDH enzyme activity was measured for 30 min at the dark in the presence of 4.5 mg/mL lactate, 0.56 mg/mL NAD+, 1.69 U/mL diaphorase, 0.004% w/v BSA, 0.15% w/v sucrose, and 0.5 mM 2-p-iodophenyl-3-nitrophenyl tetrazolium chloride. The enzyme reaction was stopped with 1.78 mg/mL oxymate and the absorbance was measured at 490 nm. Potential effects on cell viability were estimated as percentage of extracellular LDH enzyme activity. The cytotoxic natural product digitonin (100 μg/mL) was used as a positive control.

For the next series, the system named is HUVECtert. Nature of the series: Resazurin conversion assay in endothelial cells. Type of series: cell-based, human. The conditions noted are these: for Resazurin metabolic conversion in HUVECs (endothelial viability/proliferation): HUVECtert, 48 h, n.s. = no significant difference, up to stated concentration. The method, then: as §1, with “To measure the number of metabolically active VSMC by resazurin conversion,[19], cells were washed with PBS and incubated in serum-free medium containing 10 μg/mL resazurin for 2 h.” left out
(In general: Alamar Blue is a resazurin reagent that responds to reducing activity.)

The subject of series [4] is VSMC. Nature of the series: BrdU incorporation assay (de novo DNA synthesis). Type of series: cell-based. The conditions noted are these: Rattus norvegicus, PDGF-BB 20 ng/mL, read-out: Inhibition of PDGF-stimulated DNA synthesis, BrdU incorporation (IC50). The method, then:
VSMC were seeded in 96-well plates at 5 × 10^3 cells/well. Twenty-four hours later, cells were serum starved for 24 h to render them quiescent. Quiescent cells were pretreated for 30 min with compounds, or vehicle (0.1% DMSO) as indicated and subsequently stimulated with PDGF-BB (20 ng/mL). To estimate de novo DNA synthesis in VSMC [21],[22], BrdU was added 2 h after PDGF stimulation, and the incorporation amount was determined 22 h afterwards according to the manufacturer's instructions (Roche Diagnostics).

Series [5] has as its system VSMC. Nature of the series: Cell-cycle analysis by PI staining and flow cytometry. Type of series: cell-based, rat. The conditions noted are these: 10 μM, PDGF-BB 20 ng/mL 16 h, PI stained nuclei. The method, then:
VSMC were seeded in 12-well plates at 1 × 10^4 cells/well. Twenty-four hours later, cells were serum starved for 24 h to render them quiescent. Quiescent cells were preincubated with [6]-shogaol (10 μM) or vehicle ([…]) for 30 min. PDGF-BB (20 ng/mL) was added, and 16 h later cells were trypsinized, washed once with PBS, and resuspended in a hypotonic propidium iodide (PI) solution containing 0.1% v/v Triton X-100, 0.1% w/v sodium citrate, and 50 μg/mL PI. After incubation at 4°C overnight, PI-stained nuclei were analyzed by flow cytometry (excitation 488 nm, emission 585 nm; FACScalibur; BD Biosciences, Germany).

Details of series [6]: method as in PMID 19201263. To be noted: rats, single oral administration of ginger oleoresin 300 mg/kg; ref [39]; cited from earlier work.
Another series has as its system Nrf2/HO-1. Nature of the series: Immunoblot analysis of HO-1 in WT and Nrf2-/- mouse embryonic fibroblasts. It counts as cell-based. The conditions noted are these: 10 or 3 μM. Here is the method:
(§2) Cells (MEF or VSMC) were seeded onto six-well plates ((3–4) × 10^5 cells/well). Twenty-four hours later, MEF were treated with vehicle (0.1% DMSO) or [6]-shogaol at the indicated concentrations for 20 h; VSMC were serum starved for another 24 h, then quiescent cells were pretreated for 30 min with vehicle (0.1% DMSO) or [6]-shogaol as indicated and subsequently stimulated for 20 h with PDGF-BB (20 ng/mL). Then, cells were lysed and protein extracts were subjected to SDS-PAGE electrophoresis and immunoblot analysis as described,[22]. Proteins were visualized using enhanced chemiluminescence reagent and an LAS-3000 luminescent image analyzer (Fujifilm) with AIDA software (Raytest) for densitometric evaluation.

The next series relates to HO-1. Nature of the series: Immunoblot analysis of HO-1 expression in VSMC. To be noted: 3 and 10 μM, PDGF-BB 20 h. It counts as cell-based, rat. Here is the method:
as §2
(A western blot detects proteins with antibodies after separation by electrophoresis.)

[7] abbreviates: Rattus norvegicus, 48 h, PDGF-BB 20 ng/mL, 48 h, read-out: Resazurin metabolic conversion (IC50).

For the molecule `CCCCCCCC(O)CCc1ccc(O)c(OC)c1` (racemic) [rac-[6]-Dihydroparadol, rac-[6]-dihydroparadol], the IC50 amounted to 10 µM in the series with VSMC [1] (setting [7]) and 4.11 µM in the series with VSMC [2]. Further, the “Cell death (LDH release)” value with VSMC [3] was “n.s. (up to 30 μM)”. In addition, in the series with HUVECtert, the “Resazurin metabolic conversion in HUVECs (endothelial viability/proliferation)” value is “n.s. (up to 30 μM)”.
In the case of `COc1cc(CCC(C)=O)ccc1O` [Zingerone, zingerone], the IC50 with VSMC [1] (setting [7]) was over 100 µM.
For `CCCCC[C@H](O)CC(=O)CCc1ccc(O)c(OC)c1` [[6]-Gingerol, [6]-gingerol], the IC50 with VSMC [1] (setting [7]) stood at 13.2 µM; in the series on VSMC [2] it was 8.77 µM. In addition, in the series with VSMC [3], the “Cell death (LDH release)” value is recorded as “n.s. (up to 100 μM)”. Further, the “Resazurin metabolic conversion in HUVECs (endothelial viability/proliferation)” value with HUVECtert is given as “n.s. (up to 30 μM)”.
Taken in the same sequence, the figures for `CCCCCCCC(=O)CCc1ccc(O)c(OC)c1` [[6]-Paradol, [6]-paradol] were 5.3 µM, 3.34 µM, “n.s. (up to 30 μM)” and “n.s. (up to 30 μM)”.
With `CCCCCC=CC(=O)CCc1ccc(O)c(OC)c1` [[6]-Shogaol, [6]-shogaol], the IC50 with VSMC [4] was 3 µM; in the series with VSMC [1] (setting [7]) it was 2.7 µM; with VSMC [1] (PDGF-BB 20 ng/mL, 48 h, read-out: Resazurin metabolic conversion (IC50)), 2.72 µM; in the series on VSMC [2] it was 1.13 µM. Besides, the Cell-cycle distribution result in the series on VSMC [5] is “counteracted the PDGF-induced transition of VSMC from the G0/G1 cell-cycle phase to the G2/M phase”. In addition, in series [6], the Peak plasma concentration is 0.11 µg/L. In series [6], the “Peak plasma concentration (converted)” value was 0.40 µM. For the same molecule, in the series with Nrf2/HO-1, the “HO-1 induction in WT vs Nrf2-/- fibroblasts” value is recorded as “strictly Nrf2-dependent increase of HO-1”. Further, the “Antiproliferative effect in the presence of HO-1 inhibitor tin protoporphyrin IX” value in the series on VSMC [1] ([6]-shogaol 3 μM, SnPP 10 μM pretreatment 1 h, resazurin conversion) is listed as “lost its antiproliferative activity; also recorded: loses its antiproliferative influence on VSMC”. The “HO-1 levels compared to vehicle treated cells” value in the series on HO-1 is “significantly elevated HO-1 levels”. Also, the entries for the “Cell death (LDH release)” value with VSMC [3] and in the series with VSMC [3] (listed as [6]-shogaol) were “n.s. (up to 10 μM)” and “did not exhibit cytotoxicity toward VSMC”, respectively. Further, the “Resazurin metabolic conversion in HUVECs (endothelial viability/proliferation)” value was “n.s. (up to 10 μM)” with HUVECtert; “did not interfere with endothelial cell proliferation; also recorded: did obviously not impair endothelial viability and proliferation” in the series on HUVECtert (listed as [6]-shogaol).
In the case of `CC(=O)O[C@H]1C(=O)[C@@]2(C)[C@H]([C@H](OC(=O)c3ccccc3)[C@]3(O)C[C@H](OC(=O)[C@H](O)[C@@H](NC(=O)c4ccccc4)c4ccccc4)C(C)=C1C3(C)C)[C@]1(OC(C)=O)CO[C@@H]1C[C@@H]2O` [paclitaxel, reference compound], the IC50 in the series with VSMC [1] (Rattus norvegicus, data not shown, read-out: Anti-proliferative effect in VSMC (IC50)) amounted to 0.108 µM; in the series with HUVECtert (Homo sapiens, Endothelial cell, endothelial cells, data not shown, read-out: Anti-proliferative effect in endothelial cells (IC50)) it was 0.004 µM.
